In PubChem BioAssay AID1648 (Sanford-Burnham Center for Chemical Genomics, 2009):
Active and inactive are the calls of the source. How the calls were made is not given here.

Target: Serine/threonine-protein kinase mTOR (Homo sapiens) (UniProt P42345)
Assay: binders of mTOR FRB domain, biophysical, NMR (AID 1648)
Details: NMR binding to FRB domain, chemical shift

Sequence of Serine/threonine-protein kinase mTOR (Homo sapiens) (P42345 2015-2114): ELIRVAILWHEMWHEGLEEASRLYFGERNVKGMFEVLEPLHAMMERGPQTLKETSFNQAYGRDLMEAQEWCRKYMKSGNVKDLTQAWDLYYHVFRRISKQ

SMILES	Kd
CC(C)=NNC(=O)C(=O)Nc1ccc(F)cc1	> 4 mM (inactive)
CC(=O)c1c(C)nn(CC(=O)O)c1C	> 4 mM (inactive)
COc1cc2c(cc1O)[C@@H](Cc1ccc(O)cc1)[N+](C)(C)CC2	> 4 mM (inactive)
NCc1cccc(-n2cccc2)c1	> 4 mM (inactive)
CC(C)CCCC(C)[C@H]1CCC2C3CC[C@H]4CC(=O)CC[C@]4(C)C3CC[C@@]21C (some centres not stated)	> 4 mM (inactive)
O=C(/C=C/c1ccc(O)cc1)c1ccc(O)cc1O	> 4 mM (inactive)
CC1(C)C2CC(=O)[C@]3(C)C(CC[C@@]4(C)[C@H](c5ccoc5)OC(=O)[C@H]5O[C@]543)[C@@]2(C)C(=O)C[C@H]1O (some centres not stated)	> 4 mM (inactive)
Nc1cc(=O)[nH]c(=O)n1-c1ccccc1	> 4 mM (inactive)
Cc1ccccc1NC(=O)C1CCC(=O)N1 (configuration not stated)	> 4 mM (inactive)
COc1cccc(Oc2ccc(N)cn2)c1	> 4 mM (inactive)
CC(=O)CC1(O)C(=O)Nc2ccc(Br)cc21 (configuration not stated)	> 4 mM (inactive)
CCOc1nc(C)ccc1-c1noc(-c2ccncc2)n1	> 4 mM (inactive)
NCC(O)c1ccc(O)cc1 (configuration not stated)	> 4 mM (inactive)
CC(=O)O[C@@H]1C[C@@]2(C)[C@H](c3ccoc3)C[C@H]3O[C@]32[C@]2(C)C(=O)C(O)=C3C(C)(C)C(=O)C=C[C@]3(C)C12 (some centres not stated)	> 4 mM (inactive)
Cc1ccccc1NC(=O)/C=C\C(N)=O	> 4 mM (inactive)
CC1C[C@H]2CC(=O)[C@H]3CCCN4CCC[C@H]2[C@]34C1 (some centres not stated)	> 4 mM (inactive)
COC(=O)c1cc(C)on1	> 4 mM (inactive)
CCOC(=O)N1CCN(c2ncnc3c2cnn3C)CC1	> 4 mM (inactive)
Nc1cc(=O)[nH]c(SCC(=O)Nc2nccs2)n1	> 4 mM (inactive)

SMILES	Kd
C=CC(C1=CC(=O)C(OC)=CC1=O)c1ccccc1 (configuration not stated)	> 4 mM (inactive)
Cc1ccc(S(=O)(=O)CC(=O)N2CCCC2)cc1	> 4 mM (inactive)
C=C1C([C@]2(C)C(CC(=O)OC)[C@@](C)(COC(C)=O)OC(=O)C[C@@H]2OC(C)=O)[C@@H](OC=O)[C@H](OC(=O)C(O)C(C)CC)[C@@]2(C)[C@H](c3ccoc3)CC(=O)C12O (some centres not stated)	> 4 mM (inactive)
O=C(Oc1ccc(-c2nnco2)cc1)N1CCCCC1	> 4 mM (inactive)
Cn1nnc2c(N3CCC(C(N)=O)CC3)ncnc21	> 4 mM (inactive)
Cc1nc2c(n1O)CCc1c-2no[n+]1[O-]	> 4 mM (inactive)
O=C1NC(=O)/C(=C/c2ccc(O)cc2)N1	> 4 mM (inactive)
NC(CC(=O)O)C(=O)Nc1ccc(Cl)cc1 (configuration not stated)	> 4 mM (inactive)
Cc1cc(C)c(C#N)c(N2CCCC2)n1	> 4 mM (inactive)
NC1=NC(=O)/C(=C/c2cccs2)S1	> 4 mM (inactive)
CP(C)(=O)c1cccc(C(=O)O)c1	> 4 mM (inactive)
CN(C)CC(O)C1CCOC(C)(C)C1 (configuration not stated)	> 4 mM (inactive)
Cc1cc(C)n2nc(N)nc2n1	> 4 mM (inactive)
Cn1c(=O)c2c(ncn2CCN)n(C)c1=O	> 4 mM (inactive)
O=C(O[C@@H]1Cc2c(O)cc(O)cc2O[C@@H]1c1cc(O)c(O)c(O)c1)c1cc(O)c(O)c(O)c1	> 4 mM (inactive)
Cc1cc(=O)[nH]c(N2CCCCC2)n1	> 4 mM (inactive)
NC(=O)C1CCN(C(=O)c2ccccc2F)CC1	> 4 mM (inactive)
OC1CCNC2CCCCC12 (configuration not stated)	> 4 mM (inactive)
Cc1ccc(CCNc2ccccc2)c[n+]1[O-]	> 4 mM (inactive)

SMILES	Kd
Cn1ccc(C(=O)NC(=S)NN2CCOCC2)n1	> 4 mM (inactive)
CC(=O)c1c(C)n([O-])c2ccccc2[n+]1=O	> 4 mM (inactive)
CN(C)S(=O)(=O)c1cccc(N)c1	> 4 mM (inactive)
CC(C)C(C)/C=C/C(C)[C@H]1CCC2C3=CCC4CC(=O)CC[C@]4(C)C3CC[C@@]21C (some centres not stated)	> 4 mM (inactive)
C=C(C)[C@H]1CC=C(C(=O)O)CC1	> 4 mM (inactive)
O=C1NC(=S)N/C1=C\c1ccccc1F	> 4 mM (inactive)
COC(=O)C1CCN(c2ccc(Cl)nn2)CC1	> 4 mM (inactive)
Nc1ncnc(Nc2ccccc2C(F)(F)F)n1	> 4 mM (inactive)
CCOC(=O)Cn1cnc2c1c(=O)[nH]c(=O)n2C	> 4 mM (inactive)
Cc1cc(C(=O)c2c(C)nn(C)c2Cl)n(C)n1	> 4 mM (inactive)
O=C(O)c1cn(-c2ccccc2)nc1-c1cccnc1	> 4 mM (inactive)
O=c1cc(-c2ccccc2)oc2c(O)c(O)ccc12	> 4 mM (inactive)
Cn1cccc1C(=O)NS(=O)(=O)c1ccccc1Cl	> 4 mM (inactive)
CN1CCC(N(C)Cc2cccnc2)CC1	> 4 mM (inactive)
COc1cc([C@@H]2c3cc4c(cc3[C@H](OC(C)=O)[C@H]3COC(=O)[C@H]23)OCO4)cc(OC)c1OC	> 4 mM (inactive)
CN1C2CC3C[C@H]1C(O3)C2O (some centres not stated)	> 4 mM (inactive)
CC(C)=CC(=O)Nc1ccccc1Br	> 4 mM (inactive)
CN(C)c1n[nH]c(=O)[nH]c1=O	> 4 mM (inactive)
O=C(NCc1ccccc1)c1ccc[n+]([O-])c1	> 4 mM (inactive)
